We go through three compounds from PubChem BioAssay (NCI).

The structures appear in SMILES notation.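 Each compound was tested at five concentrations against cells in 96-well plates for 48 hours. Definition used: TGI = concentration required for complete inhibition of growth.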

Common to all, as to experiment: inhibition of tumour cell growth, NCI panel, 48 h
For assay [1], the system named is SF-539 CNS.
For assay [2], the system named is SW-620 colon.
Assay [3] has as its system SF-268 CNS.
In assay [4] the test system is NCI-H23 lung.
Assay [5] relates to U251 CNS.
The test system of assay [6] is SK-MEL-5 melanoma.
Assay [7] concerns SF-295 CNS.
Assay [8] has as its system OVCAR-4 ovarian.
In assay [9] the test system is SK-MEL-28 melanoma.
Assay [10] has as its system HT29 colon.
For assay [11], the system named is UACC-62 melanoma.
Assay [12] deals with EKVX NSCLC.
The subject of assay [13] is A549 NSCLC.
Assay [14] relates to MOLT-4 leukemia.
For assay [15], the system named is KM12 colon.
The subject of assay [16] is M14 melanoma.
Assay [17] has as its system UO-31 renal.
The test system of assay [18] is HCT-116 colon.
The test system of assay [19] is SK-MEL-2 melanoma.
Assay [20] has as its system K-562 leukemia.

As for `O=C1C(Cl)N(c2cccc([N+](=O)[O-])c2)C1c1c[nH]c2ccccc12` (stereo not given), the TGI in assay [1] is 40.7 µM; in assay [2], above 100 µM; in assay [3], above 100 µM; in assay [4], 85.9 µM; in assay [5] it was 56.6 µM; in assay [6] it was 34.5 µM. Also, the TGI was determined as 35.1 µM in assay [7]; 33.7 µM in assay [8]; 73.5 µM in [9]; 43.7 µM in assay [10]; 32.4 µM in assay [11]; 96.8 µM in assay [12]. Also, the TGI is 56.3 µM in assay [13]; above 100 µM in assay [14]; 49.7 µM in assay [15]; 33 µM in assay [16]; 47.9 µM in assay [17]; 44.6 µM in assay [18]. Also, the figures for the TGI in assay [19] and in assay [20] were 27.5 µM and 64.1 µM, respectively.

For `COC(=O)C1=C(OC(=O)/C=C/c2ccc(Cl)cc2)C(C(=O)OC)[C@@]2(O)[C@@H](C(=O)OC)[C@H](C)C[C@@H]1[C@@H]2C(=O)OC` (stereo not given in full), the TGI in [1] was above 100 µM; in assay [2], above 100 µM; in assay [3] it was 42.9 µM; in [4], 46 µM; in [5], above 100 µM; in assay [6], 32.2 µM. Also, the TGI is above 100 µM in [7]; above 100 µM in assay [8]; 88.7 µM in [9]; 65.8 µM in assay [10]; 54.1 µM in [11]; 71.8 µM in assay [12]. In addition, the TGI is above 100 µM in [13]; 96.4 µM in [14]; above 100 µM in assay [15]; above 100 µM in assay [16]; 57.1 µM in assay [17]; 58.3 µM in assay [18]. In addition, the TGI in assay [19] is 37 µM; in [20], above 100 µM.

Consider `NC12CCC(CC1=O)C2` (stereo not given), for which the TGI in [1], in assay [2], in assay [3], in [4], in assay [5] and in assay [6] was above 100 µM in each case. Moreover, the TGI in assay [7], in assay [8], in [9], in assay [10], in assay [11] and in [12] was above 100 µM in each case. For the same compound, the TGI in assay [13], in assay [14], in assay [15], in assay [16], in [17] and in assay [18] was above 100 µM each time. For the same compound, the TGI in assay [19] and in assay [20] was above 100 µM each time.
